US20140199261A1, “METHOD OF REDUCING MULTI-DRUG RESISTANCE USING INOSITOL TRIPYROPHOSPHATE” (Universite de Strasbourg, priority 2009, published 2014)

Columns and labels:
[1] = test system: Human MiaPaca in Nude Mouse; assay: Median survival, human MiaPaca tumor in nude mouse; format: in vivo
Excerpt: (§1) Median survival time of animals with ductal pancreatic adenocarcinoma treated with OXY111A and/or gemcitabine was followed and summarized in Table 1 below: […]

[2] = test system: Syngeneic rat tumor in rat (ductal pancreatic adenocarcinoma); assay: Median survival, syngeneic rat pancreatic tumor in rat; format: in vivo
Method: (§2) In the ITPP treatment group, rats with pancreatic tumor were treated with ITPP (1.5 mg/Kg) weekly during the period of day 14 to day 49. In the gemcitabine treatment group, rats with pancreatic tumor were treated with gemcitabine (100 mg/Kg) on days 16, 18 and 20. Animals in the control group were not treated.
as §2, with “the combination” for “the ITPP”, “(1.5 mg/Kg) in combination with gemcitabine (25 mg/Kg or 50” for “(1.5”
In the rat pancreatic tumor model, rats in the combination treatment group received ITPP (1.5 mg/Kg) in combination with gemcitabine (25 mg/Kg or 50 mg/Kg) weekly during the period of day 14 to day 49. Rats in the gemcitabine treatment group received administration of gemcitabine (100 mg/Kg) alone on days 16, 18 and 20. Rats in the control group were not treated.
as §1

[3] = test system: Rat tumor in Nude Mouse (ductal pancreatic adenocarcinoma); assay: Median survival, rat pancreatic tumor in nude mouse; format: in vivo
Excerpt: as §1

[4] = test system: Human Panc-1 pancreatic tumor xenograft; assay: Median survival, human Panc-1 pancreatic tumor xenograft in nude mouse; format: in vivo
Method: as §2, with “mice” for “rats”, “with” for “with pancreatic”, “tumor xenograft” for “tumor”, “(2” for “(1.5”
In the combination treatment group, mice with tumor xenograft were treated with ITPP (2 mg/Kg) in combination with gemcitabine (25 mg/Kg or 50 mg/Kg) weekly during the period of day 14 to day 49. In the
gemcitabine treatment group, mice with tumor xenograft were treated with gemcitabine (100 mg/Kg) on days 16, 18 and 20. Animals in the control group were not treated.
In the xenograft tumor model, mice in the combination treatment group received administration of ITPP (2 mg/Kg) in combination with gemcitabine (25 mg/Kg or 50 mg/Kg) weekly during the period of day 14 to day 49. Mice in the gemcitabine treatment group received administration of gemcitabine (100 mg/Kg) on days 16, 18 and 20. Mice in the control group were not treated.
as §1

[5] = test system: B16F10LucGFP murine melanoma cells; assay: Experimental metastasis assay (intravenous B16F10LucGFP melanoma cells), lung markers; format: in vivo, mouse
Method: After intravenous injection of B16F10LucGFP murine melanoma cells (10^5 cells in 0.1 ml saline) in the tail vein, mice (eight-week-old female C57BL/6 from Janvier) were treated by 1.5 g/kg ITPP IP injected every 5 days (10 mice per treatment group). Treatment was initiated at day 5 after tumor cells inoculation. 19 or 27 days later, mice were euthanized and lungs collected separately. Macroscopic lung foci were counted and luciferase was determined by chemoluminescence assay (Promega) in order to quantify the amount of melanoma cells in tissues. All animal study procedures and the use of animals were approved by the Comite d'Ethique pour l'expérimentation animale, Campus CNRS d'Orléans, France.
Lungs were homogenized in lysis buffer (Active motif). After centrifugations, clear supernatant was collected. Total protein amount was determined by BCA protein assay kit (Thermo Scientific). HIF-1α, VEGF, Tie-2 and HO-1 in lung lysates were quantified using colorimetric sandwich ELISA according to the manufacturer's instructions. The HIF-1α, VEGF and Tie-2 ELISA kits were from R&D. The HO-1 ELISA kit was from Takara.
The Taqman polymerase chain reaction primer sequences for LOX were 5′-[…]-3′ (SEQ ID NO: 1) and 5′-[…]-3′ (SEQ ID NO: 2). For β-actin (internal control), the primer sequences were 5′-[…] ATCC-3′ (SEQ ID NO: 3) and 5′-[…]-3′ (SEQ ID NO: 4). The amplified cDNAs bands were quantified with ImageQuant software (Becton and Dickinson). LOX mRNA levels were normalized relatively to β-actin mRNA.
To validate ITPP as an anti-metastatic agent, the “artificial” model of lung metastasis was used by injecting intravenously melanoma cells in mice. The B16F10LucGFP cell line was used, which is the melanoma B16F10 line transduced by GFP and luciferase reporter genes allowing to track and quantify the melanoma cells by analysis of luciferase activity in tissues.

[6] = test system: B16F10LucGFP subcutaneous tumors; assay: Subcutaneous melanoma model (lung metastases, vessel normalization, drug efflux pump); format: in vivo, mouse
Method: (§3) B16F10LucGFP cells were grown as subcutaneous tumors, after injecting 100 μl of a plug constituted by 10^5 cells in 25% Matrigel™ (50% in OptiMEM). Matrigel was from BD Biosciences and OptiMEM from Invitrogen. Mice were euthanized and tumors and lungs excised 25 days after inoculation. […] Treatment was initiated 7, 9 or 11 days post melanoma cell inoculation.
Tumor tissues were embedded in Tissue-Tek (Sakura), tissue freezing medium and snap frozen in liquid nitrogen. Cryosections were fixed and stained using a rat monoclonal IgG2a antibodies against mouse CD31 (PECAM-I, platelet/endothelial cell adhesion molecule) from eBiosciences, rabbit IgG anti-SMA (smooth muscle actin) antibody (AbCAM), or mouse IgG2a anti-P-Glycoprotein (C219) (Calbiochem), diluted 1:200 in FCS 5% in PBS. Goat IgG-FITC-labeled anti-rat immunoglobulin, goat IgG-FITC-labelled anti-rabbit immunoglobulin or goat IgG-FITC-labelled anti-mouse immunoglobulin (diluted 1:200 in PBS) was used as secondary antibodies respectively. To detect cell nuclei, sections were incubated with bis-Benzimide H 33258 (Sigma-Aldrich) 1:1000 in PBS. Specimens were mounted in Vectashield (Vector) and fluorescent microscopy detection was performed on a Zeiss 200M inverted fluorescent microscope. Tumor necrosis was analysed after Hematoxylin eosine staining of tumor sections.
MRI assays were performed with a 9.4 T horizontal magnet for small animals (94/21 USR Bruker Biospec), equipped with a 950 mT/m gradient set. Mice were placed in a linear homogeneous coil (inner diameter: 35 mm). Animals were maintained under gaseous (50% N2O: 0.7 l/min—50% O2: 0.7l/min—Isoflurane 1.5%) anesthesia, temperature kept constant at 36° C. and breathing rate was monitored during the acquisitions using air balloon placed on the mouse chest to adjust the anesthetic output. Measurement of tumor vascularization was performed by MR angiography using the Fast Low Angle Shot (FLASH) sequence both in the axial and coronal planes. The FLASH pulse sequence was adapted to the study of the evolution of the angiogenesis of the tumor. This technique allows the 3D structure of the vascular tree of the tumor on the same animal to be followed overtime.
Structural changes of microcirculation in tumors were assessed by MRA (Magnetic Resonance Angiography) adaptation of Magnetic Resonance Imaging (MRI) to follow the 3D structure of the vascular tree of the tumor.

[7] = test system: B16 tumor; assay: Immune cell infiltration into B16 tumor; format: in vivo
Method: OXY111A was injected intraperitoneally on days 7, 8, 14, 15, 21, 22, 29 and 30. Analysis of the B16 tumor was performed on day 31.
(a) to (c) untreated B16 tumor; (d) to (f) B16 tumor treated with ITPP. Green arrows indicate the infiltrating NK cells; red arrows indicate the vessel walls.
B16 tumor cells were labeled with B16F10 DAPI; NK cells were labeled by anti-CD49bFITCl; and vessel endothelial cells were labeled by antiCD31TRITC. (a) untreated B 16 tumor; (b) and (c) B 16 tumor treated with ITPP.

[8] = test system: subcutaneous melanoma tumor; assay: Oxylite pO2 measurement in subcutaneous melanoma tumor; format: in vivo, mouse
Method: as §3
The oxylite 2000E PO2 system (Oxford Optronics) measures pO2 by determining the O2-dependant fluorescence lifetime of ruthenium chloride which is immobilized at the tip of 230-μm diameter fiber-optic probe. The lifetime of the fluorescent pulse is inversely proportional to the oxygen tension in the tip. The mouse was anesthetized with intraperitoneal injection of xylazine/ketamin before the oxylite probe tip was installed inside the tumor and oxygen pressure recorded as described.
To confirm that ITPP-RBCs counteract hypoxia in vivo, a comparison of the values of the oxygen tension inside the melanoma tumors implanted subcutaneously above the left leg, in ITPP-treated and untreated mice was performed. Oxygen pressure (pO2) was computed by determining the O2-dependent fluorescence lifetime of ruthenium chloride on the tip of a fibre-optic probe. The lifetime of the fluorescent pulse is inversely proportional to the oxygen tension in the tip of the probe. While the tumors in non-treated animals, were strongly hypoxic with an oxygen pressure value below 2 mmHg (FIG. 1), in tumors of ITPP-treated mice pO2 reached the range of 40 mmHg (FIG. 1A). This pO2 increase occurred as soon as 30 minutes after intra-peritoneal injection of ITPP (FIG. 1B, C) and was maintained at a high level, up to 40 mmHg, as shown 24 hours after injection (FIG. 1A) for at least 48 hours.

[9] = test system: endothelial cells; assay: Endothelial cell sensitivity to chemotherapeutic drugs; format: cell-based, mouse; conditions: drug by itself, FIG. 4C
Method: Cell viability was evaluated by Alamar blue test (Biosource) as described by the manufacturer.

Nc1ccn([C@@H]2O[C@H](CO)[C@@H](O)C2(F)F)c(=O)n1 [Gemcitabine, gemcitabine, reference compound]
Median survival time ([1]; Gemcitabine alone, 100 mg/kg): 140 days
Median survival time ([2]; Gemcitabine alone, 100 mg/kg): 58 days
Median survival time ([3]; Gemcitabine alone, 100 mg/kg): 89 days
Median survival time ([4]; Gemcitabine alone, 100 mg/kg): 141 days

O=P1([O-])OC2C3OP(=O)([O-])OP(=O)([O-])OC3C3OP(=O)([O-])OP(=O)([O-])OC3C2OP(=O)([O-])O1.[Na+].[Na+].[Na+].[Na+].[Na+].[Na+] (stereo not drawn) [ITPP, hexasodium myo-inositol trispyrophosphate]
Median survival time ([1]; OXY111A alone, 2 mg/kg): 155 days
Tie-2 expression in lungs ([5]; ELISA on lung lysates): re-induced
VEGF level in lungs ([5]; ELISA on lung lysates): decreased to control levels
HIF-1α levels in lungs ([5]; ELISA on lung lysates, vs untreated melanoma bearing mice): decreased dramatically
HO-1 expression in lungs ([5]; ELISA, compared to non-treated mice): significantly reduced
Metastatic nodules in lung ([5]; ITPP treatment started from day 5, until day 27): very significantly reduced
Lysyl-oxidase (LOX) mRNA ([5]; semi-quantitative PCR): beneficial effect
Tumor vasculature (MRA) ([6]; ITPP on day 9 and 14, repeated on days 18 and 19): less dense and remarkably normalized
Tumor size ([6]; ITPP on days 9, 14, 18, 19): remarkable reduction of the tumor size
P-glycoprotein drug efflux pump in tumor ([6]; implanted primary tumors, immunostaining): down-regulates
Lung metastases ([6]; initiation of ITPP on day 9 or 11): less effective
Lung metastases ([6]; initiation on day 9 or 11, chronic administrations): enhancement of pulmonary metastases
Lung metastases ([6]; short-term treatment (3 ITPP injections, 5 days intervals) started on day 7): reduced significantly the lung metastases
Infiltration of CD49b NK cells into tumor ([7]; in vivo): significantly enhanced
Presence of CD31 EC cells in tumor ([7]; in vivo): significantly enhanced
Infiltration of CD68 (M2 type) macrophages into tumor ([7]; intraperitoneal injections on days 7, 8, 14, 15, 21, 22, 29 and 30): significantly enhanced
pO2 level maintained in tumor ([8]; 24 hours after injection): up to 40 mmHg
Duration of high tumor pO2 ([8]; after injection): at least 48 hours
Time to pO2 increase in tumor ([8]; after intra-peritoneal injection of ITPP): 30 minutes
pO2 in muscle of non tumoral leg ([8]; parallel measurement in same animal): no change or any effect on pO2 was detected
Oxygen pressure (pO2) in tumor ([8]; tumors of ITPP-treated mice, FIG. 1A): ~40 mmHg
Median survival time ([2]; OXY111A alone, 1.5 mg/kg): 102 days
Median survival time ([3]; OXY111A alone, 2 mg/kg): 107 days
Median survival time ([4]; OXY111A alone, 2 mg/kg): 155 days

CC(=O)O[C@H]1C(=O)[C@@]2(C)[C@H]([C@H](OC(=O)c3ccccc3)[C@]3(O)C[C@H](OC(=O)[C@H](O)[C@@H](NC(=O)c4ccccc4)c4ccccc4)C(C)=C1C3(C)C)[C@]1(OC(C)=O)CO[C@@H]1C[C@@H]2O [Paclitaxel, paclitaxel]
Growth of endothelial cells [9]: inhibited the growth of the endothelial cells

N.N.[Cl][Pt][Cl] [cisplatin, cis-dichlorodiamine platinum]
Growth of endothelial cells [9]: inhibited the growth of the endothelial cells
